Several values for one entry are separate records, joined by “and”; a condition that tells them apart may be missing. Equal entries are not always repeated. Toxic doses and inconclusive results are not listed. The calls were made as follows: active = survival T/C of 150% or more; inactive = T/C below 125% in these data.
Tested on: P388 leukemia ip, CD2F1 mice, survival T/C
Assay: NCI In Vivo Anticancer Drug Screen. Data for tumor model P388 Leukemia (intraperitoneal) in CD2F1 (CDF1) mice
Settings: endpoint: median survival time, higher = longer survival
How it was run: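 Mice carrying the transplanted tumor received test compound or vehicle. Survival was recorded in each group, and the value is the treated-group measurement divided by that of the vehicle-treated control group.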

[1] = dose: 50.0 mg/kg/injection, schedule: Q01DX009 (ip), vehicle: saline
[2] = dose: 100.0 mg/kg/injection, schedule: Q01DX009 (ip), vehicle: saline
[3] = dose: 50.0 mg/kg/injection, schedule: Q01DX009 (ip), vehicle: saline with Tween-80
[4] = dose: 100.0 mg/kg/injection, schedule: Q01DX009 (ip), vehicle: saline with Tween-80
[5] = dose: 200.0 mg/kg/injection, schedule: Q01DX009 (ip), vehicle: saline with Tween-80
[6] = dose: 25.0 mg/kg/injection, schedule: Q01DX009 (ip), vehicle: Klucel (hydroxypropylcellulose) (HPC)
[7] = dose: 50.0 mg/kg/injection, schedule: Q01DX009 (ip), vehicle: Klucel (hydroxypropylcellulose) (HPC)
[8] = dose: 100.0 mg/kg/injection, schedule: Q01DX009 (ip), vehicle: Klucel (hydroxypropylcellulose) (HPC)
[9] = dose: 200.0 mg/kg/injection, schedule: Q01DX009 (ip), vehicle: Klucel (hydroxypropylcellulose) (HPC)
[10] = dose: 25.0 mg/kg/injection, schedule: Q04DX003 (ip), vehicle: Klucel (hydroxypropylcellulose) (HPC)
[11] = dose: 60.0 mg/kg/injection, schedule: Q01DX005 (ip), vehicle: saline with Tween-80
[12] = dose: 120.0 mg/kg/injection, schedule: Q01DX005 (ip), vehicle: saline with Tween-80
[13] = dose: 240.0 mg/kg/injection, schedule: Q01DX005 (ip), vehicle: saline with Tween-80
[14] = dose: 50.0 mg/kg/injection, schedule: Q01DX005 (ip), vehicle: Klucel (hydroxypropylcellulose) (HPC)
[15] = dose: 100.0 mg/kg/injection, schedule: Q01DX005 (ip), vehicle: Klucel (hydroxypropylcellulose) (HPC)
[16] = dose: 100.0 mg/kg/injection, schedule: Q04DX003 (ip), vehicle: Klucel (hydroxypropylcellulose) (HPC)

Measured: T/C

COc1cc(CCNC(C)=O)cc(OC)c1OC
inactive: dose: 25.0 mg/kg/injection, schedule: Q01DX005 (ip), vehicle: water 100 % of control | dose: 50.0 mg/kg/injection, schedule: Q01DX005 (ip), vehicle: water 104 % of control | dose: 100.0 mg/kg/injection, schedule: Q01DX005 (ip), vehicle: water 100 % of control | dose: 200.0 mg/kg/injection, schedule: Q01DX005 (ip), vehicle: water 91 % of control

C=C(C)C1Oc2ccc(C(C)=O)cc2C1OC(=O)/C(C)=C\C (stereo not drawn)
inactive: dose: 22.5 mg/kg/injection, schedule: Q01DX009 (ip), vehicle: other 107 % of control | dose: 45.0 mg/kg/injection, schedule: Q01DX009 (ip), vehicle: other 111 % of control | dose: 90.0 mg/kg/injection, schedule: Q01DX009 (ip), vehicle: other 107 % of control | dose: 180.0 mg/kg/injection, schedule: Q01DX009 (ip), vehicle: other 107 % of control

CCOP1(=O)CCCCN1Cc1ccccc1 (stereo not drawn)
inactive: [1] 100 % of control | [2] 103 % of control

CCOC(CNc1c[nH]c(=O)[nH]c1=O)OCC
inactive: [3] 100 % of control | [4] 100 % of control | [5] 103 % of control | dose: 400.0 mg/kg/injection, schedule: Q01DX009 (ip), vehicle: saline with Tween-80 100 % of control

O=c1oc(-c2ccccc2)cc(N(c2ccccc2)c2ccccc2)c1Cl
inactive: [3] 93 % of control | [4] 93 % of control | [5] 95 % of control

CC(=O)Nc1ccc(N=Nc2c(O)c(S(=O)(=O)O)cc3cc(S(=O)(=O)O)ccc23)cc1
inactive: [1] 102 % of control | [2] 97 % of control | dose: 200.0 mg/kg/injection, schedule: Q01DX009 (ip), vehicle: saline 103 % of control

Oc1ccc(N=Cc2cccs2)cc1
inactive: [6] 110 % of control | [7] 100 % of control | [8] 106 % of control | [9] 105 % of control

N#CN=[N+]([O-])c1ccccc1
inactive: dose: 6.25 mg/kg/injection, schedule: Q04DX003 (ip), vehicle: Klucel (hydroxypropylcellulose) (HPC) 100 % of control | dose: 12.5 mg/kg/injection, schedule: Q04DX003 (ip), vehicle: Klucel (hydroxypropylcellulose) (HPC) 105 % of control | [10] 106 % of control and 96 % of control

Cc1noc(NS(=O)(=O)c2ccc(NCc3c4ccccc4nc4cc(Cl)ccc34)cc2)c1C
inactive: [11] 100 % of control | [12] 97 % of control | [13] 103 % of control

Cc1ccc2nc(NC(=S)NCCCCNC(=S)Nc3ccc4cc(C)ccc4n3)ccc2c1
inactive: [7] 98 % of control | [8] 94 % of control | [9] 89 % of control

O=C1CCCC(Br)c2ccccc21 (stereo not drawn)
inactive: dose: 100.0 mg/kg/injection, schedule: Q01DX009 (ip), vehicle: distilled water + Tween-80 + alcohol 112 % of control | dose: 200.0 mg/kg/injection, schedule: Q01DX009 (ip), vehicle: distilled water + Tween-80 + alcohol 115 % of control | dose: 400.0 mg/kg/injection, schedule: Q01DX009 (ip), vehicle: distilled water + Tween-80 + alcohol 106 % of control

N#C/C1=C(\C#N)N=Cc2ccccc2NCCNc2ccccc2C=N1
inactive: dose: 100.0 mg/kg/injection, schedule: Q04DX003 (ip), vehicle: saline 91 % of control | dose: 200.0 mg/kg/injection, schedule: Q04DX003 (ip), vehicle: saline 98 % of control | dose: 400.0 mg/kg/injection, schedule: Q04DX003 (ip), vehicle: saline 100 % of control

C1=C(c2ccccc2)SC(N2CCCCC2)S1 (stereo not drawn)
inactive: dose: 12.5 mg/kg/injection, schedule: Q01DX009 (ip), vehicle: distilled water + Tween-80 99 % of control | dose: 25.0 mg/kg/injection, schedule: Q01DX009 (ip), vehicle: distilled water + Tween-80 99 % of control | dose: 50.0 mg/kg/injection, schedule: Q01DX009 (ip), vehicle: distilled water + Tween-80 96 % of control | dose: 100.0 mg/kg/injection, schedule: Q01DX009 (ip), vehicle: distilled water + Tween-80 104 % of control | dose: 200.0 mg/kg/injection, schedule: Q01DX009 (ip), vehicle: distilled water + Tween-80 112 % of control

CCCCCCCCCCCCCCCCCC(=O)NC1c2ccccc2Oc2ccccc21
inactive: dose: 50.0 mg/kg/injection, schedule: Q01DX005 (ip), vehicle: saline with Tween-80 87 % of control | dose: 100.0 mg/kg/injection, schedule: Q01DX005 (ip), vehicle: saline with Tween-80 90 % of control | dose: 200.0 mg/kg/injection, schedule: Q01DX005 (ip), vehicle: saline with Tween-80 92 % of control

N#Cc1ccc(CC(CC(=O)c2ccccc2)c2ccccc2)cc1 (stereo not drawn)
inactive: dose: 25.0 mg/kg/injection, schedule: Q01DX009 (ip), vehicle: saline with Tween-80 91 % of control | [3] 89 % of control | [4] 89 % of control | [5] 89 % of control

N#Cc1c(C(F)(F)F)cc(-c2cccs2)nc1SC(C(=O)Nc1c(F)cccc1F)c1ccccc1 (stereo not drawn)
inactive: [14] 94 % of control | [15] 94 % of control | dose: 200.0 mg/kg/injection, schedule: Q01DX005 (ip), vehicle: Klucel (hydroxypropylcellulose) (HPC) 94 % of control

O=c1[nH]c(=O)c2cccnc2[nH]1
inactive: dose: 6.25 mg/kg/injection, schedule: Q01DX009 (ip), vehicle: Klucel (hydroxypropylcellulose) (HPC) 93 % of control | dose: 12.5 mg/kg/injection, schedule: Q01DX009 (ip), vehicle: Klucel (hydroxypropylcellulose) (HPC) 99 % of control | [6] 121 % of control and 93 % of control | [7] 118 % of control | [8] 99 % of control

COC(=O)c1cc(=O)n(-c2ccccc2F)c(SC)n1
inactive: [10] 105 % of control | dose: 50.0 mg/kg/injection, schedule: Q04DX003 (ip), vehicle: Klucel (hydroxypropylcellulose) (HPC) 104 % of control | [16] 106 % of control

O=C(C[n+]1cc2ccccc2c2ccccc21)c1ccc(-c2ccccc2)cc1
inactive: dose: 6.25 mg/kg/injection, schedule: Q01DX005 (ip), vehicle: Klucel (hydroxypropylcellulose) (HPC) 104 % of control | dose: 12.5 mg/kg/injection, schedule: Q01DX005 (ip), vehicle: Klucel (hydroxypropylcellulose) (HPC) 104 % of control | dose: 25.0 mg/kg/injection, schedule: Q01DX005 (ip), vehicle: Klucel (hydroxypropylcellulose) (HPC) 110 % of control | [14] 105 % of control | [15] 109 % of control

COC1=CC(=O)c2ncc(Cl)cc2C1=O
inactive: dose: 30.0 mg/kg/injection, schedule: Q01DX005 (ip), vehicle: saline with Tween-80 111 % of control | [11] 100 % of control and 93 % of control

CNc1ncn(-c2c(C)cccc2C)c(=O)n1
inactive: [11] 101 % of control and 106 % of control | [12] 108 % of control | [13] 117 % of control

Cc1cccc(Cl)c1NC(=O)Nc1cccc(C#N)c1
inactive: [11] 93 % of control | [12] 89 % of control | [13] 98 % of control

CC(=O)/C(=C\C=C\c1ccccc1)C(=O)CCN(C)C
inactive: dose: 50.0 mg/kg/injection, schedule: Q01DX005 (ip), vehicle: saline 98 % of control | dose: 100.0 mg/kg/injection, schedule: Q01DX005 (ip), vehicle: saline 109 % of control | dose: 200.0 mg/kg/injection, schedule: Q01DX005 (ip), vehicle: saline 118 % of control

C#CCn1cnc2c(N)ncnc21
inactive: [14] 97 % of control | [15] 93 % of control

Cc1ccc(C)[nH]1
inactive: dose: 12.5 mg/kg/injection, schedule: Q01DX001 (ip), vehicle: alcohol 109 % of control | dose: 25.0 mg/kg/injection, schedule: Q01DX001 (ip), vehicle: alcohol 111 % of control | dose: 50.0 mg/kg/injection, schedule: Q01DX001 (ip), vehicle: alcohol 101 % of control and 102 % of control

CC(C(=O)O)c1cccc2nc(-c3ccccc3)oc12 (stereo not drawn)
inactive: [4] 112 % of control | [5] 102 % of control

CC(=O)N1CCc2ccccc2C1C1c2ccccc2CCN1C(C)=O (stereo not drawn)
inactive: [16] 94 % of control | dose: 200.0 mg/kg/injection, schedule: Q04DX003 (ip), vehicle: Klucel (hydroxypropylcellulose) (HPC) 94 % of control | dose: 400.0 mg/kg/injection, schedule: Q04DX003 (ip), vehicle: Klucel (hydroxypropylcellulose) (HPC) 92 % of control

Reference: PubChem BioAssay AID330 (DTP/NCI, 2004)
